Entries after “also recorded” stand apart in the source; their conditions may differ.
Columns and labels:
in vitro = settings: mouse
Procedure: In this study, we used murine bone-marrow-derived macrophages (BMDMs) to evaluate the staining potential of the 6e compound in primary immune cells. […] To assess toxicity, the BMDMs were stained with various concentrations (0.1–100 μM) of compound 6e, and after 24 h, cell viability was measured using the CCK-8 assay (Figure 5).
To determine the cytotoxicity of the SP compound 6e, the cells were stained with various concentrations of the dye (0, 0.1, 1, 5, 10, and 100 μM). Briefly, 2 × 10^4 cells were plated in a 96-well plate in 100 μL of the medium. After 24 h, the cells were washed once and a solution of compound 6e in PBS was added to the cells. The cells were incubated in a humidified 5% CO2 incubator at 37 °C for 15–20 min. Then, the dye solution was replaced with medium. […] After 24 h, the medium was replaced with 10 μL of CCK-8 reagent in 100 μL of fresh medium. The cells were incubated in a humidified 5% CO2 incubator at 37 °C for 1–4 h. The absorbance at 450 nm was measured using a microplate spectrophotometer (BioTek Instruments, Winooski, VT, USA). Cell viability was calculated as a percentage of non-treated cell absorbance. IC50 values were calculated as the concentration at which 50% of the cells were viable.

BHK-21 cells = format: cell-based, Syrian hamster; settings: BHK-21, 24 h after staining
Procedure: SP compound 6e was selected for fluorescent cell imaging analysis. First, the compound was used to label the BHK-21 cells that are widely used in molecular biology studies. Commercially available CellTracker™ Deep Red dye (Invitrogen) was used as a control because it has a similar emission range (ex/em: 630/660). The BHK-21 cells were incubated with fluorescent dyes to stain the cells, then seeded on a 24-well plate and cultured for 24 h. SP compound 6e was used at 25 μM concentration, providing a non-toxic effect on BHK-21 cells (Table S2, entry 5, Supplementary Materials). The Deep Red dye was used according to the manufacturer’s instructions.
The day after staining, the cells were collected and washed several times with PBS buffer in order to evaluate the stability of the staining. The fluorescent signal was analysed by flow cytometry (Figure 3). […] However, only (61 ± 3)% of Deep Red stained cells were positive, whereas SP compound 6e ensured 99.9% positive cells. Moreover, the signal intensity (fluorescence shift from unstained cells) of cells stained with compound 6e was remarkably higher than for the Deep Red dye. The calculated stain index for SP compound 6e was (92 ± 19) before cell washing and (77 ± 15) after cell washing. However, in the case of Deep Red, the calculated stain index was (2.27 ± 0.07) before cell washing and (2.21 ± 0.07) after cell washing. High intensity usually facilitates flow cytometry data acquisition by enhancing the signal-to-background ratio and enabling optimal compensation in complex multicolour fluorescence analysis. […]
When cells reached 90% confluency, they were stained with 25 μM compound 6e or 1 μM CellTracker™ Deep Red dye (Cat. No. C34565; Invitrogen) according to the manufacturer’s instructions. […] Stained cells were kept at 4 °C and analysed using a FACSAria BD Hardware flow cytometer with FACSDiva 6.1.3 software (BD Biosciences, San Jose, CA, USA). […] The data were analysed using FlowJo 10.3 software (FlowJo LLC, Ashland, OR, USA) and presented as the mean of three independent experiments. […]

BMDMs = experiment: Confocal microscopy, localisation of the staining; format: cell-based, mouse; settings: 5 μM, confocal microscopy with WGA Alexa Fluor 488 and DAPI
Text: The stained BMDMs were studied using confocal microscopy to verify the membrane, cytoplasmic, or nuclear localisation of the staining (Figure 6). Wheat germ agglutinin (WGA) Alexa Fluor 488 (Invitrogen, W11261) was chosen for selective plasma membrane labelling and DAPI (Invitrogen, D1306) was selected for nucleus labelling. […] Furthermore, the SP compound 6e was compared with commercially available CM-DiI Dye (Invitrogen, ex/em: 553/570, Figure 6b).
For confocal microscopy, BMDMs were stained with 4 μM CellTracker™ CM-DiI dye (Cat. No. C7001; Invitrogen) or 5 μM compound 6e. Briefly, the cells were washed and then a dye solution in PBS was added to them. […] Then, the cells were stained with WGA Alexa Fluor 488 (Cat. No. W11261; Invitrogen) following the manufacturer’s instructions. Briefly, the cells were incubated with 1 μg/mL WGA solution in PBS at 37 °C. […] The fluorescence was detected as follows: a DPSS (561 nm) laser was used for excitation of compound 6e and CM-Dil, an argon (488 nm) laser was used for WGA, and a diode (405 nm) laser was used for DAPI. For fluorescence detection, HyD was used for compound 6e and CM-Dil (578 nm–636 nm) and PMT detectors were used for WGA (493 nm–739 nm) and DAPI (417 nm–498 nm), pinhole at 95 µm. The images were analysed using Leica Application Suite X 3.1.5. software (Leica Microsystems, Germany).

SMILES: CCCCCCCCCCCCCCCC[n+]1ccc(C=CC=Cc2cc3c4c(c2)CCCN4CCC3)cc1.[Br-] [Compound 6e, 1-hexadecyl-4-(4-(2,3,6,7-tetrahydro-1H,5H-pyrido[3,2,1-ij]quinolin-9-yl)buta-1,3-dien-1-yl)pyridin-1-ium bromide]
- viability at 24 h, 5 µM (in vitro): 79.1 ± 1.2%
- stain index after cell washing (BHK-21 cells; washed 3 times with PBS): 77 ± 15
- positive (stained) cells (BHK-21 cells; 25 μM 6e or 1 μM Deep Red): 99.9%
- stain index before cell washing (BHK-21 cells; 25 μM 6e or 1 μM Deep Red): 92 ± 19
- localisation of the staining in cells (BMDMs): strong fluorescent signal localised in the cell cytoplasm, whereas the cell nuclei were not stained; also recorded: localised in the cell cytoplasm and does not stain the cell nucleus; also recorded: localises within the cell cytoplasm and does not stain the cell nucleus
